Experiment [1] addresses T1, β-lactamase TEM1 (Escherichia coli, UniProt P62593).
T1 construct: The β-lactamases are isolated from bacterial strains resistant to penicillins and to cephalosporins; endogenous in cells; host or cells: E. coli 250HT21 (soluble fraction of French-press lysate, 100 000 G supernatant)
Briefly: β-lactamase inhibiting activity (Nitrocefin hydrolysis). The format is biochemical, E. coli 250HT21. The procedure: (§1) A. Preparation of the β-lactamases Tem˜1 and P99
(§2) The β-lactamases are isolated from bacterial strains resistant to penicillins and to cephalosporins (Tem1 and P99 are produced by E. coli 250HT21 and E. Cloacae 293HT6, respectively).
(§3) The bacteria are cultured in heart-brain broth at 37 g/l (DIFCO), at 37° C. They are harvested at the end of the exponential phase, cooled and centrifuged. The bacterial pellets are taken up in 50 mM sodium phosphate buffer pH 7.0 and again centrifuged. The bacteria are taken up in two volumes of this same buffer and lyzed by means of a French-Press kept at 4° C. After centrifugation for 1 h at 100 000 G, at 4° C., the supernatants containing the soluble fraction of the bacterial extracts are recovered and frozen at −80° C.
(§4) B. Determination of the β-lactamase Activity
(§5) The method uses, as substrate, Nitrocefin (OXOID), a chromogenic cephalosporin, whose product of hydrolysis by Beta-lactamases is red and absorbs at 485 nm. The β-lactamase activity is kinetically determined by measuring the variation in absorbance at 485 nm resulting from the hydrolysis of the substrate on a plate spectrophotometer (Spectra Max Plus from Molecular Devices). The experiments are performed at 37° C. The quantity of enzyme was normalized and the measurements are performed at the initial speed.
(§6) C. Determination of the β-lactamase Inhibiting Activity
(§7) Two measurements are carried out, without preincubation and with preincubation of the enzyme and of the inhibitor (5 min), in order to test the irreversibility of the reaction. The products are tested at 6 or 8 concentrations in duplicate. The reaction mixture contains 100 μM of Nitrocefin and 50 mM sodium phosphate buffer pH 7.0. D. Calculations of the IC50 Values
(§8) The rates of hydrolysis are measured with and without inhibitor. The concentration of inhibitor which inhibits by 50% the reaction of hydrolysis of Nitrocefin by the enzyme (IC50) is determined. The data processing is carried out with the aid of the GraFit software (Erathycus Software).

The target of experiment [2] is T2, β-lactamase P99 (Enterobacter cloacae, UniProt P05364).
T2 construct: The β-lactamases are isolated from bacterial strains resistant to penicillins and to cephalosporins; endogenous in cells; host or cells: E. cloacae 293HT6 (soluble fraction of French-press lysate, 100 000 G supernatant)
T2 sequence (P05364 21-381): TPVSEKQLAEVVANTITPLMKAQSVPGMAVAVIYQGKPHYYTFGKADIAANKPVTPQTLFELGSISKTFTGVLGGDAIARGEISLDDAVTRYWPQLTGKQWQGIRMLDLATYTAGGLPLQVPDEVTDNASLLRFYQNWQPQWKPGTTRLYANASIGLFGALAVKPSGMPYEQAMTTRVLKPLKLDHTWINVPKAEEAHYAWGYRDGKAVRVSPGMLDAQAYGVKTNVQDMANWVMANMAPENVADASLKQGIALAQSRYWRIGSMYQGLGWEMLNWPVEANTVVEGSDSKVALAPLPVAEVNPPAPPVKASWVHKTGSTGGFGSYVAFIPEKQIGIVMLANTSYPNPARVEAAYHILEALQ
Briefly: biochemical. The class given is biochemical. To be noted: 100 μM Nitrocefin, 50 mM sodium phosphate buffer pH 7.0, 37° C. The procedure:
as §1, §2, §3, §4, §5, §6, §7, §8

Structures are written as SMILES. Counter-ions that a name gives are not always drawn. Like-named read-outs stand apart in the source and are kept apart here.

T1 sequence (P62593 24-286 limits assumed): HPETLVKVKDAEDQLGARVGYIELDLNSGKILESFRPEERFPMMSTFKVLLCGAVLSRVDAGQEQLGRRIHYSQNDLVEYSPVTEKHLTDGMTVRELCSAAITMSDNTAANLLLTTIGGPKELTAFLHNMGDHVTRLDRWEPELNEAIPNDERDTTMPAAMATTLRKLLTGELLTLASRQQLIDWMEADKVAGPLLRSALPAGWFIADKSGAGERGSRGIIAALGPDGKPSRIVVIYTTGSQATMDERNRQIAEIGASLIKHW

Regarding `COc1ccc(Cn2ncc3c2CN2CC3N(OS(=O)(=O)O)C2=O)cc1` (stereo not drawn) [Example 18, Sodium Salt of 1,4,5,8-tetrahydro-1-[(4-methoxyphenyl)methyl]-5-(sulfoxy)-6H-4,7-methanopyrazolo[3,4-e][1,3]diazepin-6-one], the IC50 in experiment [1] (100 μM Nitrocefin, 50 mM sodium phosphate buffer pH 7.0, 37° C., read-out: IC50 nM/TEM1) amounted to 5 nM; in experiment [2] it was 13 nM.

Consider `COC(=O)C1c2sc(-c3ccc(F)cc3)cc2C2CN1C(=O)N2OS(=O)(=O)O` (stereo not drawn) [Example 19, Sodium Salt of Methyl Trans-2-(4-fluorophenyl)-4,5,6,8-tetrahydro-6-oxo-5-(sulfoxy)-4,7-methano-7H-thieno[2,3-e][1,3]diazepine-8-carboxylate], for which the figures for the IC50 in experiment [1] and in experiment [2] were 5 nM and 16 nM, respectively.

With `CCOC(=O)C1c2ccc(OC(=O)Nc3ccccc3)cc2C2CN1C(=O)N2OS(=O)(=O)O` (stereo not drawn) [Example 37, Sodium Salt of Ethyl Trans-1,2,3,5-tetrahydro-3-oxo-8-[[(phenylamino)carbonyl]oxy]-2-(sulfoxy)-1,4-methano-4H-2,4-benzodiazepine-5-carboxylate], the values for the IC50 in experiment [1] and in experiment [2] were 41 nM and 21 nM, respectively.

As to `CC1(C)OCC(COc2ccc3c(c2)C2CN(C(=O)N2OS(=O)(=O)O)C3C(N)=O)O1` (stereo not drawn) [Example 42, Sodium Salt of trans-8-[(2,2-dimethyl-1,3-dioxolan-4-yl)methoxy]-1,2,3,5-tetrahydro-3-oxo-2-(sulfoxy)-1,4-methano-4H-2,4-benzodiazepine-5-carboxamide], the IC50 in experiment [1] stood at 15 nM; in experiment [2], 44 nM.

As to `NC(=O)C1c2nn(-c3ccccc3)cc2C2CN1C(=O)N2OS(=O)(=O)O` (stereo not drawn) [Example 45, Sodium Salt of trans-2,5,6,8-tetrahydro-6-oxo-2-phenyl-5-(sulfoxy)-4H-4,7-methanopyrazolo[3,4-e][1,3]diazepine-8-carboxamide], the IC50 in experiment [1] came to 1 nM; in experiment [2], 12 nM.

`O=C1N2Cc3c(cnn3-c3ccccc3)C(C2)N1OS(=O)(=O)O` (stereo not drawn) [Example 46, Sodium Salt of 1,4,5,8-tetrahydro-1-phenyl-5-(sulfoxy)-6H-4,7-methanopyrazolo[3,4-e][1,3]diazepin-6-one]: the figures for the IC50 in experiment [1] and in experiment [2] were 5 nM and 80 nM, respectively.

Source of the values: patent publication US7439253B2, “Heterocyclic compounds, their preparation and their use as medicaments, in particular as antibacterials and beta-lactamase inhibitors” (Novexel, priority 2002, dated 2008).
